# Measurements as given in patent publication US20180319810A1, “SUBSTITUTED BRIDGED UREA ANALOGS AS SIRTUIN MODULATORS” (GlaxoSmithKline Intellectual Property (No.2) Limited, priority 2014, published 2018).
# Target: T1, SIRT1 (Homo sapiens, UniProt Q96EB6)
# T1 sequence (Q96EB6 1-747): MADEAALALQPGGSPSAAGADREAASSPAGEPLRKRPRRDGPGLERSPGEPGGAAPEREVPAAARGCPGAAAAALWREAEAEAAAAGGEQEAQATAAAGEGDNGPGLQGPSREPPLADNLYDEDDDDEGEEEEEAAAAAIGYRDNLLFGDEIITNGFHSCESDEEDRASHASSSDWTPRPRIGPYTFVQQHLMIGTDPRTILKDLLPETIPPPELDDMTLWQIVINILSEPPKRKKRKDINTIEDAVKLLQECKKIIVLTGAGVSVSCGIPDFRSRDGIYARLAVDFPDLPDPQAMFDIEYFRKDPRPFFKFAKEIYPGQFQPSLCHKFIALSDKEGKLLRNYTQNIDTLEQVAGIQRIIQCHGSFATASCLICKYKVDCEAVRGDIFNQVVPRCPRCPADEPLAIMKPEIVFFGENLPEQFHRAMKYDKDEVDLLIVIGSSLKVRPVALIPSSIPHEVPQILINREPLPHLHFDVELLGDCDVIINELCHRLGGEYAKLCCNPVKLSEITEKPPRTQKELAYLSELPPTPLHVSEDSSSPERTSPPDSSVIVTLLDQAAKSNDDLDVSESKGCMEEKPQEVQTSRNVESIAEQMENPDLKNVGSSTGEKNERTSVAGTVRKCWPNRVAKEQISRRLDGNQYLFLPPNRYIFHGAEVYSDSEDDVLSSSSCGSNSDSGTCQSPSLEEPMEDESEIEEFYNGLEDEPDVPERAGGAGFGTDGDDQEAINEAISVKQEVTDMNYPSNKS
# Experiment: Trp mass spectrometry assay of SIRT1 activation
# Type: biochemical
# Conditions: Trp peptide Ac-R-H-K-K(Ac)-W-NH2 0.5 μM, 120 μM βNAD+, 10 nM SIRT1, 25 min, 25° C.
Structure (SMILES),"TRP Activity (EC1.5, concentration of compound required to increase SIRT1 activity by 50% over control)",TRP MAX RESP (percent maximum fold activation relative to control)
"O=C(Nc1cncc(OC[C@@H](O)CO)c1)N1c2nc(-c3cccc(C(F)(F)F)c3)ncc2N2CC[C@H]1C2 [Example 24, (8S)—N-(5-((S)-2,3-dihydroxypropoxy)pyridin-3-yl)-2-(3-(trifluoromethyl)phenyl)-7,8-dihydro-5,8-methanopyrimido[4,5-b][1,4]diazepine-9(6H)-carboxamide]",B (EC1.5 1-25 μM),A (Fold activation ≥150%)
"C[C@@H](NC(=O)c1ncc2c(n1)N(C(=O)Nc1cccc(OC[C@H](O)CO)n1)[C@H]1CCCN2C1)C(F)(F)F [Example 78, (9S)—N10-(6-((R)-2,3-dihydroxypropoxy)pyridin-2-yl)-N2-((R)-1,1,1-trifluoropropan-2-yl)-8,9-dihydro-6H-5,9-methanopyrimido[4,5-b][1,4]diazocine-2,10(7H)-dicarboxamide]",B (EC1.5 1-25 μM),A (Fold activation ≥150%)
"Cc1ccc2c(NC(=O)N3c4nc(C(=O)NC(CO)C(F)(F)F)ncc4N4CCC[C@H]3C4)n[nH]c2n1 (single isomer, unassigned) [Example 66]",A (EC1.5<1 μM),A (Fold activation ≥150%)
"O=C(Nc1ccnc(O[C@@H]2CCOC2)n1)N1c2nc(-c3cccc(C(F)(F)F)c3)ncc2N2CC[C@H]1C2 [Example 14, (8S)—N-(2-(((R)-tetrahydrofuran-3-yl)oxy)pyrimidin-4-yl)-2-(3-(trifluoromethyl)phenyl)-7,8-dihydro-5,8-methanopyrimido[4,5-b][1,4]diazepine-9(6H)-carboxamide]",B (EC1.5 1-25 μM),A (Fold activation ≥150%)
"O=C(Nc1ccc(OC[C@H](O)CO)nc1)N1c2nc(-c3cccc(C(F)(F)F)c3)ncc2N2CCC[C@H]1C2 [Example 82, (9S)—N-(6-((R)-2,3-dihydroxypropoxy)pyridin-3-yl)-2-(3-(trifluoromethyl)phenyl)-8,9-dihydro-6H-5,9-methanopyrimido[4,5-b][1,4]diazocine-10(7H)-carboxamide]",A (EC1.5<1 μM),A (Fold activation ≥150%)
"Cc1ncc(-c2ccnc(NC(=O)N3c4nc(C(=O)NCC(F)(F)F)ncc4N4CC[C@H]3C4)c2)o1 [Example 61, (8S)—N9-(4-(2-methyloxazol-5-yl)-pyridin-2-yl)-N2-(2,2,2-trifluoroethyl)-7,8-dihydro-5,8-methanopyrimido-[4,5-b][1,4]-diazepine-2,9(6H)-dicarboxamide]",B (EC1.5 1-25 μM),A (Fold activation ≥150%)
"Cc1cc(-c2ncc3c(n2)N(C(=O)Nc2cccnc2)[C@H]2CCN3C2)ccn1 [Example 6, (8S)-2-(2-methylpyridin-4-yl)-N-(pyridin-3-yl)-7,8-dihydro-5,8-methano pyrimido[4,5-b][1,4]diazepine-9(6H)-carboxamide]",B (EC1.5 1-25 μM),A (Fold activation ≥150%)
"O=C(Nc1ccc(OC[C@@H](O)CO)cn1)N1c2nc(-c3cccc(C(F)(F)F)c3)ncc2N2CCC[C@H]1C2 [Example 98, (9S)—N-(5-((S)-2,3-dihydroxypropoxy)pyridin-2-yl)-2-(3-(trifluoromethyl)phenyl)-8,9-dihydro-6H-5,9-methanopyrimido[4,5-b][1,4]diazocine-10(7H)-carboxamide]",A (EC1.5<1 μM),A (Fold activation ≥150%)
"O=C(Nc1ccccn1)N1c2nc(-c3cccc(C(F)(F)F)c3)ncc2N2CCC[C@H]1C2 [Example 86, (9S)—N-(pyridin-2-yl)-2-(3-(trifluoromethyl)phenyl)-8,9-dihydro-6H-5,9-methanopyrimido[4,5-b][1,4]diazocine-10(7H)-carboxamide]",A (EC1.5<1 μM),–
"O=C(NC1CC1)N1c2nc(-c3cccc(C(F)(F)F)c3)ncc2N2CC[C@H]1C2 [Example 15, (8S)—N-cyclopropyl-2-(3-(trifluoromethyl)phenyl)-7,8-dihydro-5,8-methanopyrimido[4,5-b][1,4]diazepine-9(6H)-carboxamide]",A (EC1.5<1 μM),A (Fold activation ≥150%)
"Cc1nc(-c2cccc(C(F)(F)F)c2)nc2c1N1CCC[C@@H](C1)N2C(=O)Nc1cncc(OC[C@@H](O)CO)c1 [Example 109, (9S)—N-(5-((S)-2,3-dihydroxypropoxy)pyridin-3-yl)-4-methyl-2-(3-(trifluoromethyl)phenyl)-8,9-dihydro-6H-5,9-methanopyrimido[4,5-b][1,4]diazocine-10(7H)-carboxamide]",A (EC1.5<1 μM),A (Fold activation ≥150%)
"CC(C)NC(=O)N1c2nc(-c3cccc(C(F)(F)F)c3)ncc2N2CC[C@H]1C2 [Example 30, (8S)—N-isopropyl-2-(3-(trifluoromethyl)phenyl)-7,8-dihydro-5,8-methanopyrimido[4,5-b][1,4]diazepine-9(6H)-carboxamide]",B (EC1.5 1-25 μM),A (Fold activation ≥150%)
"C[C@@H](NC(=O)c1ncc2c(n1)N(C(=O)Nc1ccccn1)[C@H]1CCCN2C1)C(F)(F)F [Example 63, (9S)—N10-(pyridin-2-yl)-N2-((R)-1,1,1-trifluoropropan-2-yl)-8,9-dihydro-6H-5,9-methanopyrimido[4,5-b][1,4]diazocine-2,10(7H)-dicarboxamide]",A (EC1.5<1 μM),A (Fold activation ≥150%)
"O=C(Nc1cc(OC[C@@H](O)CO)ccn1)N1c2nc(-c3cccc(C(F)(F)F)c3)ncc2N2CC[C@H]1C2 [Example 36, (8S)—N-(4-((S)-2,3-dihydroxypropoxy)pyridin-2-yl)-2-(3-(trifluoromethyl)phenyl)-7,8-dihydro-5,8-methanopyrimido[4,5-b][1,4]diazepine-9(6H)-carboxamide]",B (EC1.5 1-25 μM),A (Fold activation ≥150%)
"Cc1ccc2c(NC(=O)N3c4nc(C(=O)NCC(F)(F)F)ncc4N4CCC[C@H]3C4)n[nH]c2n1 [Example 65, (9S)—N10-(6-methyl-1H-pyrazolo[3,4-b]pyridin-3-yl)-N2-(2,2,2-trifluoroethyl)-8,9-dihydro-6H-5,9-methanopyrimido[4,5-b][1,4]diazocine-2,10(7H)-dicarboxamide]",B (EC1.5 1-25 μM),A (Fold activation ≥150%)
"O=C(NCC(F)(F)F)c1ncc2c(n1)N(C(=O)Nc1ccccn1)[C@H]1CCN2C1 [Example 58, (8S)—N9-(pyridin-2-yl)-N2-(2,2,2-trifluoroethyl)-7,8-dihydro-5,8-methano pyrimido[4,5-b][1,4]diazepine-2,9(6H)-dicarboxamide]",B (EC1.5 1-25 μM),A (Fold activation ≥150%)
"Cc1cc(-c2nc(C)c3c(n2)N(C(=O)Nc2ccccn2)[C@H]2CCN3C2)ccn1 [Example 10, (8S)-4-methyl-2-(2-methylpyridin-4-yl)-N-(pyridin-2-yl)-7,8-dihydro-5,8-methanopyrimido[4,5-b][1,4]diazepine-9(6H)-carboxamide]",B (EC1.5 1-25 μM),A (Fold activation ≥150%)
"O=C(Nc1cncc(OC[C@H](O)CO)c1)N1c2nc(-c3cccc(C(F)(F)F)c3)ncc2N2CCC[C@H]1C2 [Example 81, (9S)—N-(5-((R)-2,3-dihydroxypropoxy)pyridin-3-yl)-2-(3-(trifluoromethyl)phenyl)-8,9-dihydro-6H-5,9-methanopyrimido[4,5-b][1,4]diazocine-10(7H)-carboxamide]",A (EC1.5<1 μM),A (Fold activation ≥150%)
